# Several values for one entry are separate records, joined by “and”; a condition that tells them apart may be missing. Equal values may be shown once. Read-outs that look alike come from different tables or passages of the source.
# Columns and labels:
# [1] = tested on: actinic keratosis cell line HaCaT; assay: Growth inhibition of EGF-stimulated HaCaT cells (Cell Titer Glo); format: cell-based; settings: for IC50: Homo sapiens
# Method: To investigate the mechanisms by which these pathways are affected, GZ17-6.02 was administered to the actinic keratosis cell line HT297.T in vitro and changes in signalling within various pathways were measured 6 hours post administration with cell death measured 24 hours post administration. […] 5-Fluorouracil was tested at a concentration of 50 uM.
# Materials and Methods: A Cell Titer Glo assay was used to determine the sensitivity of EGF-stimulated HaCaT cells to GZ21T. Annexin-V assay was utilized to assess the pro-apoptotic effects of GZ21T on HaCaT cells, and the mechanism was clarified by western blot. AK lesions were induced in Female SKH-1 mice by exposing them to UVB radiation (500 J/m2) five times weekly for ten weeks. Mice were subsequently treated with 0.25 grams topical GZ21T or control cream five days per week. At the studies endpoint, lesional samples were collected from control and GZ21T treated mice and were subjected to RNA-sequencing and reverse phase protein arrays (RPPA). Gene set enrichment analysis (GSEA) was performed using the KEGG database as reference to identify the top pathways altered by GZ21T treatment. Gene set variation analysis (GSVA) was used to assess GZ21T's effect on pathways previously implicated in the pathogenesis of AK. Enrichment analysis was also performed on proteins showing decreased expression following GZ21T treatment using Enrichr with the KEGG database as reference.
# [2] = In vitro permeation test through pig skin, infinite dose (150 mg, 230 mg/cm^2), Bronaugh flow-through cells; settings: for Cumulative amount permeated: after application of 6% GZ17-6.02 cream batch, mean±SD
# Method: Epidermal accumulation is significant due to the desired site of drug action on keratinocytes in actinic keratosis.
# Three formulations were used in this experiment.
# PBS buffer with 2% (w/w) Brij will be used as receptor solution.
# The equipment used is Bronaugh diffusion cells. Parameters of the experiment is described in tables below. Analyses were performed according to RP-HPLC assay with additional calibration standard solutions. […] For the amount found in the tissue values both with and without cell 11 and 12 are reported.
# After the in vitro experiment was terminated each membrane was washed, dismounted and prepared according to the following procedure: • 1. Wash the membrane six times with 0.5 ml PBS buffer and collect the PBS in the wash fraction tubes. • 2. Dismount the cells and gently clean the membranes with PBS moisture tops. Collect the tops in the wash fraction tubes. • 3. Gently separate […] from dermis by peeling the membrane and collect in a test tube. • 4. Cut out the cell flange (the unexposed skin) with a 10 mm punch and collect the material in a test tube. • 5. Cut the dermis into thin strips with a scalpel and collect the material in a test tube 1.5 ml.
# Analysis of receptor solution and extractions from epidermis and dermis were performed by RP-HPLC.
# Receptor solution were analyzed without any further treatment.
# Tissue samples were treated according to the following procedure: • 1. […] Vortex the sample and sonicate for 30 minutes in cold water (2-8° C. add ice to the bath). • 3. The samples should then be centrifuged at 14000 rpm and transferred to HPLC vial for analysis.
# [3] = Solubility of the active ingredients in aqueous GZ17-6.02 solutions; format: physicochemical; settings: aqueous GZ17-6.02 solution
# Text: By comparison, in one study, the solubility of the active ingredients in aqueous GZ17-6.02 solutions (not the lipid crystalline formulation) was first analyzed. […]
# [4] = Solubility in receptor solution (PBS with 0.1% Brij); format: physicochemical; settings: aqueous with cosolvent or surfactant or cyclodextrin, thermodynamic from solid
# Method: Excess of GZ17-6.02 were added to the solvent, which were stirred for 1 hour and incubated at 32° C. for 24 h. Thereafter the sample was centrifuged or filtrated and the solubility determined by HPLC method DM.216.03[4] or DM.217.01 [5]. One sample was prepared and duplicate injections were analysed.
# [5] = IVPT on pig skin, finite dose 10 mg/cm^2, 3% and 6% GZ17-6.02 monoglyceride cream; settings: after 24 h
# Method: Wash the membrane six times with 0.5 ml PBS buffer and collect the PBS in the wash fraction tubes. • 2. Dismount the cells and gently clean the membranes with PBS moisture tops. Collect the tops in the wash fraction tubes. • 3. Gently separate […] from dermis by peeling the membrane and collect in a test tube. • 4. Cut out the cell flange (the unexposed skin) with a 10 mm punch and collect the material in a test tube. • 5. […] The samples should then be centrifuged at 14000 rpm and transferred to HPLC vial for analysis.
# [6] = same experimental methods (FIG. 6), read-out: IC50
# [7] = after application of 6% GZ17-6.02 cream
# [8] = PBS buffer with 0.1% Brij, 32° C., 24 h, read-out: Solubility in receptor solution
# [9] = pig, 24 h, 6 % GZ17-6.02 in cream
SMILES,"IC50 [1, 6] [µM]","Amount adsorbed into dermis [2, 7] [µg/g]","Amount adsorbed into epidermis [2, 7] [µg/g]",Maximum obtained concentration in the receptor solution ([2]; previous IVPT experiment) [µg/mL],Solubility at 2-8° C. ([3]; pH 4.3) [% w/w],Solubility at 25° C. ([3]; pH 4.3) [% w/w],Solubility at 2-8° C. ([3]; pH 7.0) [% w/w],Solubility at 25° C. ([3]; pH 7.0) [% w/w],"solubility at 24 h [4, 8] [µg/mL]",further results
"O=C(O)Cc1ccccc1Nc1c(Cl)cccc1Cl [diclofenac, reference compound]",602,–,–,–,–,–,–,–,–,–
"COc1ccc2c(c1)[nH]c1c(C)nccc12 [Harmine, 7-methoxy-1-methyl-9H-pyrido[3,4-b]indole]",–,38.9 ± 24.4,585.5 ± 227.8,0.13,>1.56,>1.56,0.0014,0.0034,50,IC50 ([1]; read-out: IC50 as Monotherapy): 2.55 µg/mL and 12 µM
COc1ccc(C=O)cc1O [Isovanillin],–,29.4 ± 19.3,181.2 ± 118.3,18,0.27,0.57,0.18,0.28,3960 ± 30,Cumulative amount permeated ([2]; 2 h): 35.0 ± 20.7 μg/cm^2; Cumulative amount permeated ([2]; 4 h): 103.4 ± 47.6 μg/cm^2; Cumulative amount permeated ([2]; 6 h): 169.3 ± 66.1 μg/cm^2; Cumulative amount permeated ([2]; 8 h): 209.5 ± 74.4 μg/cm^2; Cumulative amount permeated ([2]; 24 h): 208 μg/cm^2 and 207.9 ± 95.2 μg/cm^2; Applied dose permeated when deviation from the linear regime (depletion) occurs ([2]; after 6-8 hours): about 1.5%; Systemic adsorption ([2]; extrapolated from in vitro 24 h permeation to a treated area of 25 cm^2): 5.2 mg; Applied dose permeated the skin [5]: about 2%
"O=c1[nH]cc(F)c(=O)[nH]1 [5-Fluorouracil, reference compound]",4.8,–,–,–,–,–,–,–,–,–
"COc1cc(/C=C/C(=O)CC(=O)/C=C/c2ccc(O)c(OC)c2)ccc1O [Curcumin, 1,7-bis(4-hydroxy3-methoxyphenyl)-1,6-heptadiene-3,5-dione]",–,–,–,–,–,–,–,–,–,"IC50 as Monotherapy ([1]; API alone): 0.736 µg/mL; IC50 ([1]; API alone, read-out: IC50 as Monotherapy): 0.774 µg/mL and 2 µM; Maximum obtained concentration in the receptor solution ([2]; pig, 6 % GZ17-6.02 in cream): 0 µg/mL; Amount adsorbed into dermis [2, 9]: 0.40 ± 0.23 µg/g; Amount adsorbed into epidermis [2, 9]: 3.82 ± 1.88 µg/g; solubility at 24 h ([4]; 32 °C): 10 µg/mL"

# Source: patent US20230000795A1, “LIPID CRYSTALLINE COMPOSITIONS WITH ENHANCED STABILITY FOR TOPICAL DELIVERY OF ACTIVE AGENT COMBINATIONS” (Ankh Life Sciences Limited, priority 2021, published 2023)
